{"source": "ChEMBL document CHEMBL1157460", "about": "“Enhanced concentration-dependent cytotoxic effect of the dinuclear copper(II) complex of L-carnitine [Cu2(L-carnitine)2Cl2(H2O)2]Cl2, compared to L-carnitine or copper chloride dihydrate, in human leukemic cell lines” (2008)", "key": {"[1]": {"test_system": "K562", "assay": "Cytotoxicity against human K562 cells assessed as necrosis at 2.5 uM after 48 hrs by trypan blue staining", "type": "functional"}, "[2]": {"test_system": "HL-60", "assay": "Cytotoxicity against human HL60 cells assessed as necrosis at 2.5 uM after 48 hrs by trypan blue staining", "type": "functional"}, "[3]": {"test_system": "HL-60", "assay": "Cytotoxicity against human HL60 cells assessed as necrosis at 2.5 uM after 72 hrs by trypan blue staining", "type": "functional"}, "[4]": {"test_system": "HL-60", "assay": "Cytotoxicity against human HL60 cells assessed as necrosis at 5 uM after 72 hrs by trypan blue staining", "type": "functional"}, "[5]": {"test_system": "HL-60", "assay": "Cytotoxicity against human HL60 cells assessed as cell viability at <=2.5 uM by MTT assay", "type": "functional, cell-based", "conditions": "TDE = time-dependent effect"}, "[6]": {"test_system": "K562", "assay": "Cytotoxicity against human K562 cells assessed as necrosis at 10 uM after 48 hrs by trypan blue staining", "type": "functional"}, "[7]": {"test_system": "K562", "assay": "Cytotoxicity against human K562 cells assessed as necrosis at 10 uM after 72 hrs by trypan blue staining", "type": "functional"}, "[8]": {"test_system": "HL-60", "assay": "Cytotoxicity against human HL60 cells assessed as cell viability at >=5 uM after 24 hrs by MTT assay", "type": "functional, cell-based"}, "[9]": {"test_system": "K562", "assay": "Cytotoxicity against human K562 cells assessed as necrosis at 10 uM after 24 hrs by trypan blue staining", "type": "functional"}, "[10]": {"test_system": "HL-60", "assay": "Cytotoxicity against human HL60 cells assessed as necrosis at 10 uM after 72 hrs by trypan blue staining", "type": "functional"}, "[11]": {"test_system": "K562", "assay": "Cytotoxicity against human K562 cells assessed as cell viability at >=5 uM after 24 hrs by MTT assay", "type": "functional, cell-based"}, "[12]": {"test_system": "K562", "assay": "Cytotoxicity against human K562 cells assessed as cell viability at <=2.5 uM by MTT assay", "type": "functional, cell-based", "conditions": "TDE = time-dependent effect"}, "[13]": {"test_system": "HL-60", "assay": "Cytotoxicity against human HL60 cells assessed as necrosis at 1.25 uM after 72 hrs by trypan blue staining", "type": "functional"}, "[14]": {"test_system": "K562", "assay": "Cytotoxicity against human K562 cells assessed as necrosis at 1.25 uM after 24 hrs by trypan blue staining", "type": "functional"}, "[15]": {"test_system": "HL-60", "assay": "Cytotoxicity against human HL60 cells assessed as necrosis at 5 uM after 48 hrs by trypan blue staining", "type": "functional"}, "[16]": {"test_system": "K562", "assay": "Cytotoxicity against human K562 cells assessed as necrosis at 2.5 uM after 72 hrs by trypan blue staining", "type": "functional"}, "[17]": {"test_system": "K562", "assay": "Cytotoxicity against human K562 cells assessed as necrosis at 5 uM after 72 hrs by trypan blue staining", "type": "functional"}, "[18]": {"test_system": "HL-60", "assay": "Cytotoxicity against human HL60 cells assessed as necrosis at 10 uM after 24 hrs by trypan blue staining", "type": "functional"}, "[19]": {"test_system": "K562", "assay": "Cytotoxicity against human K562 cells assessed as necrosis at 1.25 uM after 48 hrs by trypan blue staining", "type": "functional"}, "[20]": {"test_system": "K562", "assay": "Cytotoxicity against human K562 cells assessed as necrosis at 2.5 uM after 24 hrs by trypan blue staining", "type": "functional"}, "[21]": {"test_system": "HL-60", "assay": "Cytotoxicity against human HL60 cells assessed as necrosis at 10 uM after 48 hrs by trypan blue staining", "type": "functional"}, "[22]": {"test_system": "K562", "assay": "Cytotoxicity against human K562 cells assessed as necrosis at 5 uM after 48 hrs by trypan blue staining", "type": "functional"}, "[23]": {"test_system": "HL-60", "assay": "Cytotoxicity against human HL60 cells assessed as necrosis at 5 uM after 24 hrs by trypan blue staining", "type": "functional"}, "[24]": {"test_system": "HL-60", "assay": "Cytotoxicity against human HL60 cells assessed as necrosis at 1.25 uM after 48 hrs by trypan blue staining", "type": "functional"}, "[25]": {"test_system": "HL-60", "assay": "Cytotoxicity against human HL60 cells assessed as necrosis at 1.25 uM after 24 hrs by trypan blue staining", "type": "functional"}, "[26]": {"test_system": "HL-60", "assay": "Cytotoxicity against human HL60 cells assessed as necrosis at 2.5 uM after 24 hrs by trypan blue staining", "type": "functional"}, "[27]": {"test_system": "K562", "assay": "Cytotoxicity against human K562 cells assessed as necrosis at 1.25 uM after 72 hrs by trypan blue staining", "type": "functional"}, "[28]": {"test_system": "K562", "assay": "Cytotoxicity against human K562 cells assessed as necrosis at 5 uM after 24 hrs by trypan blue staining", "type": "functional"}}, "data": [{"molecule": "CUPRIC CHLORIDE", "values": [{"measurement": "Activity", "setting": "[1]", "value": 10.8, "unit": "%"}, {"measurement": "Activity", "setting": "[2]", "value": 6.8, "unit": "%"}, {"measurement": "Activity", "setting": "[3]", "value": 22.6, "unit": "%"}, {"measurement": "Activity", "setting": "[4]", "value": 100, "unit": "%"}, {"measurement": "Activity", "setting": "[5]", "value": "tde"}, {"measurement": "Activity", "setting": "[6]", "value": 100, "unit": "%"}, {"measurement": "Activity", "setting": "[7]", "value": 100, "unit": "%"}, {"measurement": "Activity", "setting": "[8]", "value": 0, "unit": "%"}, {"measurement": "Activity", "setting": "[9]", "value": 100, "unit": "%"}, {"measurement": "Activity", "setting": "[10]", "value": 100, "unit": "%"}, {"measurement": "Activity", "setting": "[11]", "value": 0, "unit": "%"}, {"measurement": "Activity", "setting": "[12]", "value": "tde"}, {"measurement": "Activity", "setting": "[13]", "value": 26.5, "unit": "%"}, {"measurement": "Activity", "setting": "[14]", "value": 16.3, "unit": "%"}, {"measurement": "Activity", "setting": "[15]", "value": 100, "unit": "%"}, {"measurement": "Activity", "setting": "[16]", "value": 7.5, "unit": "%"}, {"measurement": "Activity", "setting": "[17]", "value": 100, "unit": "%"}, {"measurement": "Activity", "setting": "[18]", "value": 100, "unit": "%"}, {"measurement": "Activity", "setting": "[19]", "value": 4.9, "unit": "%"}, {"measurement": "Activity", "setting": "[20]", "value": 5.1, "unit": "%"}, {"measurement": "Activity", "setting": "[21]", "value": 100, "unit": "%"}, {"measurement": "Activity", "setting": "[22]", "value": 100, "unit": "%"}, {"measurement": "Activity", "setting": "[23]", "value": 86.2, "unit": "%"}, {"measurement": "Activity", "setting": "[24]", "value": 10.8, "unit": "%"}, {"measurement": "Activity", "setting": "[25]", "value": 1.4, "unit": "%"}, {"measurement": "Activity", "setting": "[26]", "value": 1.5, "unit": "%"}, {"measurement": "Activity", "setting": "[27]", "value": 3, "unit": "%"}, {"measurement": "Activity", "setting": "[28]", "value": 87.5, "unit": "%"}]}, {"molecule": "C[N+](C)(C)C[C@H](O)CC(=O)[O-]", "note": "[LEVOCARNITINE]", "values": [{"measurement": "Activity", "setting": "[1]", "value": 0, "unit": "%"}, {"measurement": "Activity", "setting": "[2]", "value": 7.8, "unit": "%"}, {"measurement": "Activity", "setting": "[3]", "value": 28.4, "unit": "%"}, {"measurement": "Activity", "setting": "[4]", "value": 25.6, "unit": "%"}, {"measurement": "Activity", "setting": "[5]", "value": "tde"}, {"measurement": "Activity", "setting": "[6]", "value": 11.1, "unit": "%"}, {"measurement": "Activity", "setting": "[7]", "value": 11.8, "unit": "%"}, {"measurement": "Activity", "setting": "[8]; TDE = time-dependent effect", "value": "tde"}, {"measurement": "Activity", "setting": "[9]", "value": 2.4, "unit": "%"}, {"measurement": "Activity", "setting": "[10]", "value": 30, "unit": "%"}, {"measurement": "Activity", "setting": "[11]; TDE = time-dependent effect", "value": "tde"}, {"measurement": "Activity", "setting": "[12]", "value": "tde"}, {"measurement": "Activity", "setting": "[13]", "value": 13.6, "unit": "%"}, {"measurement": "Activity", "setting": "[14]", "value": 0, "unit": "%"}, {"measurement": "Activity", "setting": "[15]", "value": 9.2, "unit": "%"}, {"measurement": "Activity", "setting": "[16]", "value": 4.7, "unit": "%"}, {"measurement": "Activity", "setting": "[17]", "value": 14.3, "unit": "%"}, {"measurement": "Activity", "setting": "[18]", "value": 1.7, "unit": "%"}, {"measurement": "Activity", "setting": "[19]", "value": 2.5, "unit": "%"}, {"measurement": "Activity", "setting": "[20]", "value": 2.4, "unit": "%"}, {"measurement": "Activity", "setting": "[21]", "value": 9.7, "unit": "%"}, {"measurement": "Activity", "setting": "[22]", "value": 8.9, "unit": "%"}, {"measurement": "Activity", "setting": "[23]", "value": 1.8, "unit": "%"}, {"measurement": "Activity", "setting": "[24]", "value": 5.3, "unit": "%"}, {"measurement": "Activity", "setting": "[25]", "value": 1.4, "unit": "%"}, {"measurement": "Activity", "setting": "[26]", "value": 0, "unit": "%"}, {"measurement": "Activity", "setting": "[27]", "value": 4.7, "unit": "%"}, {"measurement": "Activity", "setting": "[28]", "value": 0, "unit": "%"}]}]}
